“And” between values parts separate entries of the source, which are not always exact repeats. Identical values can stand only once. The source made the active and inactive calls. The rule behind the calls is not given here.
Test system: rodent lifetime carcinogenesis bioassay, tumor incidence TD50
Test: carcinogenic potency in animals, long-term in vivo studies, CPDB compilation (AID 1745844)

C#C[C@]1(OC(C)=O)CC[C@H]2[C@@H]3CCC4=CC(=O)CC[C@@H]4[C@H]3CC[C@@]21C (tested in a mixture with another compound)
active: TD50 (mouse, strain C57L, females, by gavage, site: pituitary gland, lesion: one or several types, types not named, dosed 89 weeks, study length 89 weeks) 1.34 mg/kg/day | TD50 (rat, strain Sprague-Dawley albino, both sexes, in feed, site: liver, lesion: hepatocellular adenoma, dosed 104 weeks, study length 104 weeks) 7.59 mg/kg/day | TD50 (rat, strain Sprague-Dawley albino, both sexes, in feed, site: liver, lesion: hyperplastic nodule, dosed 104 weeks, study length 104 weeks) 1.94 mg/kg/day | TD50 (rat, strain Sprague-Dawley albino, both sexes, in feed, site: mammary gland, lesion: adenocarcinoma, dosed 104 weeks, study length 104 weeks) 76.8 mg/kg/day | TD50 (rat, strain Sprague-Dawley albino, both sexes, in feed, site: mammary gland, lesion: adenoma, dosed 104 weeks, study length 104 weeks) 14.8 mg/kg/day | TD50 (rat, strain Sprague-Dawley albino, both sexes, in feed, site: mammary gland, lesion: fibroepithelial tumor, dosed 104 weeks, study length 104 weeks) 21 mg/kg/day | TD50 (rat, strain Sprague-Dawley albino, both sexes, in feed, site: mammary gland, lesion: several types, types named in the paper, dosed 104 weeks, study length 104 weeks) 6.66 mg/kg/day | TD50 (rat, strain Sprague-Dawley albino, both sexes, in feed, site: pituitary gland, lesion: chromophobe adenoma, dosed 104 weeks, study length 104 weeks) 5.31 mg/kg/day | TD50 (rat, strain Sprague-Dawley albino, both sexes, in feed, site: uterus, lesion: adenomatous endometrial polyp, dosed 104 weeks, study length 104 weeks) 27.4 mg/kg/day
14.2 mg/kg/day: TD50 (rat, strain Sprague-Dawley albino, both sexes, in feed, site: any site (literature study), lesion: several types, types named in the paper, dosed 104 weeks, study length 104 weeks)
inactive: carcinogen call (monkey, strain Rhesus [Macaca mulatta], females, in feed, site: pancreatic duct, lesion: adenoma, dosed 391 weeks, study length 521 weeks) negative | TD50 (monkey, strain Rhesus [Macaca mulatta], females, in feed, site: skin, lesion: papilloma, dosed 391 weeks, study length 521 weeks) 10.1 mg/kg/day | TD50 (monkey, strain Rhesus [Macaca mulatta], females, in feed, site: uterus, lesion: leiomyoma, dosed 391 weeks, study length 521 weeks) 6.42 mg/kg/day | carcinogen call (mouse, strain C57L/He x 129/Rr x C3HeB/De x SWR/Ly, females, by gavage, site: any site (literature study), lesion: several types, types named in the paper, dosed 69 weeks, study length 69 weeks) negative | carcinogen call (mouse, strain C57L/He x 129/Rr x C3HeB/De x SWR/Ly, females, by gavage, site: any site (literature study), lesion: several types, types named in the paper, dosed 69 weeks, study length 82 weeks) negative | carcinogen call (mouse, strain C57L/He x 129/Rr x C3HeB/De x SWR/Ly, females, by gavage, site: lung, lesion: one or several types, types not named, dosed 69 weeks, study length 69 weeks) negative

CCCCN(CCCC)C(=S)[S-].CCCCN(CCCC)C(=S)[S-].[Ni+2]
inactive: TD50 (mouse, strain B6AKF1, females, oral dosing, site: any site (literature study), lesion: several types, types named in the paper, dosed 76 weeks, study length 76 weeks) 0.185 mg/kg/day | carcinogen call (mouse, strain B6AKF1, females, oral dosing, site: liver, lesion: hepatoma, dosed 76 weeks, study length 76 weeks) negative | TD50 (mouse, strain B6AKF1, females, oral dosing, site: lung, lesion: adenoma, dosed 76 weeks, study length 76 weeks) 0.0869 mg/kg/day | carcinogen call (mouse, strain B6AKF1, males, oral dosing, site: any site (literature study), lesion: several types, types named in the paper, dosed 76 weeks, study length 76 weeks) negative | carcinogen call (mouse, strain B6AKF1, males, oral dosing, site: liver, lesion: hepatoma, dosed 76 weeks, study length 76 weeks) negative | TD50 (mouse, strain B6AKF1, males, oral dosing, site: lung, lesion: adenoma, dosed 76 weeks, study length 76 weeks) 0.153 mg/kg/day | TD50 (mouse, strain B6C3F1, females, oral dosing, site: any site (literature study), lesion: several types, types named in the paper, dosed 76 weeks, study length 76 weeks) 0.174 mg/kg/day | carcinogen call (mouse, strain B6C3F1, females, oral dosing, site: liver, lesion: hepatoma, dosed 76 weeks, study length 76 weeks) negative | TD50 (mouse, strain B6C3F1, females, oral dosing, site: lung, lesion: adenoma, dosed 76 weeks, study length 76 weeks) 0.174 mg/kg/day | TD50 (mouse, strain B6C3F1, males, oral dosing, site: any site (literature study), lesion: several types, types named in the paper, dosed 76 weeks, study length 76 weeks) 0.0283 mg/kg/day | TD50 (mouse, strain B6C3F1, males, oral dosing, site: liver, lesion: hepatoma, dosed 76 weeks, study length 76 weeks) 0.0509 mg/kg/day | TD50 (mouse, strain B6C3F1, males, oral dosing, site: lung, lesion: adenoma, dosed 76 weeks, study length 76 weeks) 0.163 mg/kg/day

CC(C(O)c1ccccc1)N(C)N=O (configuration not stated)
40 mg/kg/day: TD50 (rat, strain Sprague-Dawley, males, by gavage, site: any site (literature study), lesion: several types, types named in the paper, dosed 104 weeks, study length 104 weeks)
138 mg/kg/day: TD50 (rat, strain Sprague-Dawley, males, by gavage, site: liver, lesion: hepatocellular carcinoma, dosed 104 weeks, study length 104 weeks)
active: TD50 (rat, strain Sprague-Dawley, males, by gavage, site: forestomach, lesion: papilloma, dosed 104 weeks, study length 104 weeks) 239 mg/kg/day | TD50 (rat, strain Sprague-Dawley, males, by gavage, site: forestomach, lesion: squamous-cell carcinoma, dosed 104 weeks, study length 104 weeks) 740 mg/kg/day | TD50 (rat, strain Sprague-Dawley, males, by gavage, site: liver, lesion: several types, types named in the paper, dosed 104 weeks, study length 104 weeks) 95.2 mg/kg/day | TD50 (rat, strain Sprague-Dawley, males, by gavage, site: lung, lesion: several types, types named in the paper, dosed 104 weeks, study length 104 weeks) 217 mg/kg/day

CCC=C(CC)[N+](=O)[O-]
active: TD50 (mouse, strain Swiss, both sexes, inhaled, site: lung, lesion: adenocarcinoma, dosed 62 weeks, study length 62 weeks) 0.346 mg/kg/day | TD50 (rat, strain CFN, both sexes, inhaled, site: lung, lesion: undifferentiated carcinoma, dosed 158 weeks, study length 158 weeks) 8.66 mg/kg/day
0.363 mg/kg/day and 0.768 mg/kg/day: TD50 (mouse, strain Swiss Webster, females, inhaled, site: lung, lesion: adenocarcinoma, dosed 62 weeks, study length 62 weeks)
0.687 mg/kg/day: TD50 (mouse, strain Swiss Webster, females, inhaled, site: lung, lesion: several types, types named in the paper, dosed 62 weeks, study length 62 weeks)

CC(=O)N[C@@H](CS)C(=O)O
inactive: carcinogen call (rat, strain Fischer 344, males, in feed, site: liver, lesion: several types, types named in the paper, dosed 98 weeks, study length 98 weeks) negative

O=NN1CCC1
active: TD50 (hamster, strain Syrian Golden, males, by gavage, site: liver, lesion: several types, types named in the paper, dosed 50 weeks, study length 85 weeks) 7.14 mg/kg/day
8.83 mg/kg/day: TD50 (hamster, strain Syrian Golden, males, by gavage, site: any site (literature study), lesion: several types, types named in the paper, dosed 50 weeks, study length 85 weeks)
10.7 mg/kg/day: TD50 (hamster, strain Syrian Golden, males, by gavage, site: liver, lesion: hepatocellular adenoma, dosed 50 weeks, study length 85 weeks)

— PubChem BioAssay AID1745844 (Carcinogenic Potency Database (CPDB), 2022)
